ChEMBL document CHEMBL1201862, “PubChem BioAssay data set” (2004)
Calls of active or inactive are those of the source.

Columns and labels:
[1] = molecular target: T1, Heat shock factor protein 1 (Mus musculus, UniProt P38532); assay: decrease of HSF1-responsive luciferase luminescence – cell-based, NIH3T3, dose retest, confirmation (AID 2382); assay type: functional;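 also: NIH3T3 fibroblasts with HSF1-driven luciferase reporter stressed by proteasome inhibitor MG132; luminescence from HSF1-driven luciferase expression after 8 hours of MG132 stress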
T1 sequence (P38532 whole entry): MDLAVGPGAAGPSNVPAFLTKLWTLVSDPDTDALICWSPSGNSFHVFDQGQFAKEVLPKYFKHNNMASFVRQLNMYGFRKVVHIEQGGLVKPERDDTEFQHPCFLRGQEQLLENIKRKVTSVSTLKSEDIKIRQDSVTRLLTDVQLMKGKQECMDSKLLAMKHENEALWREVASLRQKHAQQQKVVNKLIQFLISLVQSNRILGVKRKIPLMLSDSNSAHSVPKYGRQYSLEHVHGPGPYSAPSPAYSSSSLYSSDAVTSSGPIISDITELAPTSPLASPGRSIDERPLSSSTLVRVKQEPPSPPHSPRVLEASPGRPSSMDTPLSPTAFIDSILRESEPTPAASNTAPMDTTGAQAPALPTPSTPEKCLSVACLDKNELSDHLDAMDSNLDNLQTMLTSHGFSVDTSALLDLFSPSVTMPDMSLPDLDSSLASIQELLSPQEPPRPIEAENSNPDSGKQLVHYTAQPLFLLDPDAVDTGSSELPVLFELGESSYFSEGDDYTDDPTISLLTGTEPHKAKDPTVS

[2] = molecular target: T2, Ubiquitin-conjugating enzyme E2 N (Homo sapiens, UniProt P61088); assay type: functional;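 also: Dose-response confirmation in a TR-FRET assay detecting UBC13-driven polyubiquitin chain formation, inhibition measured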
T2 sequence (P61088 whole entry): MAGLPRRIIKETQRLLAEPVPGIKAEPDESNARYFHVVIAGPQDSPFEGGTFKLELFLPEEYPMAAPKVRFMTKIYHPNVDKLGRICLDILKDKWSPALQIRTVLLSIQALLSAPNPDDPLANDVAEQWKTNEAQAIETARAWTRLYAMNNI

[3] = molecular target: T3, Zinc finger protein mex-5 (Caenorhabditis elegans, UniProt Q9XUB2); assay: potency of MEX-5 RNA-binding blockers – biochemical, C. elegans, fluorescence polarization, dose response (AID 1960)
T3 sequence (Q9XUB2 whole entry): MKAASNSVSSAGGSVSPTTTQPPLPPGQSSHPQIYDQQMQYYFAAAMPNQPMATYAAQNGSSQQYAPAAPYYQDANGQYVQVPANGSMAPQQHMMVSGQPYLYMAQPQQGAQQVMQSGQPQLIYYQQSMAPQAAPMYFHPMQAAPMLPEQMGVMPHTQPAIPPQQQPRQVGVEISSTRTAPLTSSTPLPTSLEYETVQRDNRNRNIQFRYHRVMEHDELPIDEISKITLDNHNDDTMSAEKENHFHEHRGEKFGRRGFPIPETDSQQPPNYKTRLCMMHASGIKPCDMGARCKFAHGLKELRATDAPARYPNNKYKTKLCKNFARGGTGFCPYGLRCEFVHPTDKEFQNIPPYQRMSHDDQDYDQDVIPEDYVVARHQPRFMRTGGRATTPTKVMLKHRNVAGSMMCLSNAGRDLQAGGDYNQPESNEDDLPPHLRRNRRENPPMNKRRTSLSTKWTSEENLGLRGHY

Protein RecA = molecular target: T4, Protein RecA (Mycobacterium tuberculosis, UniProt P9WHJ3); assay: Fluorescence Cell-Free Homogeneous Dose Retest to Identify Inhibitors of RecA-Intein Splicing Activity. [Related pubchem assays (depositor defined):AID2097, AID2223, AID489010, AID492950]; assay type: functional
T4 sequence (P9WHJ3 whole entry): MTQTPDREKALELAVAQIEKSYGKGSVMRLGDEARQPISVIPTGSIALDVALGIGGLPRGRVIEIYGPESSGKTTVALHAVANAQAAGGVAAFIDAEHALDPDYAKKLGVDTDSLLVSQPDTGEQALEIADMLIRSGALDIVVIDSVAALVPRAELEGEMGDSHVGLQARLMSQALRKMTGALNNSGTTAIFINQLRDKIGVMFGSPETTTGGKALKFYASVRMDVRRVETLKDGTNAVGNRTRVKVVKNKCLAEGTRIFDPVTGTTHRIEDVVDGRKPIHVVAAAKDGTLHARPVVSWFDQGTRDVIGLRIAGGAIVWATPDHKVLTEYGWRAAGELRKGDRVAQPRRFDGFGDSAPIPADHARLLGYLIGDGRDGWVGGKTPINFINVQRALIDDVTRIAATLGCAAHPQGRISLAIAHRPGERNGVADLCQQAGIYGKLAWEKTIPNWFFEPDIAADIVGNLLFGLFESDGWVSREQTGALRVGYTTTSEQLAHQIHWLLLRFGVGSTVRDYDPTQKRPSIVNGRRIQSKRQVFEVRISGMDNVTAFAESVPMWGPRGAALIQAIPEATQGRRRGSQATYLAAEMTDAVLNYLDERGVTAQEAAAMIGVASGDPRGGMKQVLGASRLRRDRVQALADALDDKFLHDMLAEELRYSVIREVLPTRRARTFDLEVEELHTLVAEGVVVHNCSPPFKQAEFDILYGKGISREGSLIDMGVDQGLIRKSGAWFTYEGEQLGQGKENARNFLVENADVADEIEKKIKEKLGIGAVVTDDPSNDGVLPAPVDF

[4] = molecular target: T5, Intestinal-type alkaline phosphatase (Homo sapiens, UniProt P09923); assay: human intestinal alkaline phosphatase activators, dose response, biochemical, luminescence, uHTS hits (AID 463120); assay type: functional
[5] = molecular target: T5, Intestinal-type alkaline phosphatase; assay: activation of human intestinal alkaline phosphatase – biochemical, luminescent, uHTS hits, set 2, dose response (AID 488817); assay type: functional;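 also: potency of activators that raise enzyme activity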
Aurora kinase B = Aurora kinase B (Homo sapiens, UniProt Q96GD4); assay type: functional
[6] = molecular target: Cyclin-dependent kinase 5 (Homo sapiens, UniProt Q00535); assay type: functional;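 also: CDK5 measured as one member of a kinase profiling panel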
[7] = molecular target: Serine/threonine-protein kinase N2 (Homo sapiens, UniProt Q16513); assay type: functional
[8] = molecular target: Tyrosine-protein kinase SYK (Homo sapiens, UniProt P43405); assay type: functional
Activin receptor type-1 = Activin receptor type-1 (Homo sapiens, UniProt Q04771); assay: Navigating the Kinome. Panel member name: ACVR1; assay type: functional
[9] = molecular target: Homeodomain-interacting protein kinase 2 (Homo sapiens, UniProt Q9H2X6); assay type: functional;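 also: measured within a kinome-wide kinase profiling panel, HIPK2 being one panel member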
[10] = luciferase reporter signal suppression in cells – H4 neuroglioma cells, luminescence, dose response (AID 1990); assay type: functional, cell-based
[11] = Luminescence Cell-Based Dose Response HTS to Identify Inhibitors of 5'UTR Stem-Loop Driven Prion Protein mRNA Translation in H4 Neuroglioblastoma Cells. [Related pubchem assays: 1827 (Project Summary), 1813 (Primary HTS)]; assay type: functional
[12] = HIV-1 AD8 envelope cell-cell fusion blockers – cherry-pick, dose response (AID 652062); assay type: functional, cell-based;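 also: luciferase signal from cell-cell fusion driven by HIV-1 clade B AD8 Env; potency is for inhibitors of fusion seen as a drop in luminescence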
[13] = NIH3T3 cell viability loss – ATP luminescence, mouse fibroblasts, counter-screen, dose response (AID 2010); assay type: functional, cell-based;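 also: cells exposed to compound for about 90 hours before reading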

T5 sequence (P09923 whole entry): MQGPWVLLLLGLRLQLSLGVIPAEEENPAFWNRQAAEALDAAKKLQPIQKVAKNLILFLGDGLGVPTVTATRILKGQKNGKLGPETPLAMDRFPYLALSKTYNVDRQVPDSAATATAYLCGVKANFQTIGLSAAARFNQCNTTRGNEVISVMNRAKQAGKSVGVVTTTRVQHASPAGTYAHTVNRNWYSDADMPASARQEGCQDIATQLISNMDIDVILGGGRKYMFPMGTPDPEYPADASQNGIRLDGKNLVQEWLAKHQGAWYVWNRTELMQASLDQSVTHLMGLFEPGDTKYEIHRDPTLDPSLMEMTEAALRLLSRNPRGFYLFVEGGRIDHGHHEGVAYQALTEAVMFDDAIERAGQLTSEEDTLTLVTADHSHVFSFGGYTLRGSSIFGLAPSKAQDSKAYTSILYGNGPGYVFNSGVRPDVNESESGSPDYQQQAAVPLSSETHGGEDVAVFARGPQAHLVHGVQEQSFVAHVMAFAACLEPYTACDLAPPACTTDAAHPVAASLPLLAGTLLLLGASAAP
Activin receptor type-1, sequence (Q04771 whole entry): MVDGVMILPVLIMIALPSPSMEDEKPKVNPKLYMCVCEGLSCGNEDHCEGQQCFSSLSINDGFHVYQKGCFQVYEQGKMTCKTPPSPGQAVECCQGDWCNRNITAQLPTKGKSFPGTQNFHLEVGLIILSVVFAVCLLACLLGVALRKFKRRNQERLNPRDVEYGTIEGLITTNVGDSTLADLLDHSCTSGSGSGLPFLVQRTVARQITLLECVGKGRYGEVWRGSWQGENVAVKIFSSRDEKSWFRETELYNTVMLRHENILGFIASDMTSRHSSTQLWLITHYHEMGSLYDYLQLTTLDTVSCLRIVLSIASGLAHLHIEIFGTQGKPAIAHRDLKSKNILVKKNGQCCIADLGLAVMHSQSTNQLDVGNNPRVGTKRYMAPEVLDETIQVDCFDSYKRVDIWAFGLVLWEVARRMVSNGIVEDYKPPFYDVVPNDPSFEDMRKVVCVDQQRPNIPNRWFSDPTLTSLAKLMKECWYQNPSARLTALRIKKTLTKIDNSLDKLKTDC
Aurora kinase B, sequence (Q96GD4 whole entry): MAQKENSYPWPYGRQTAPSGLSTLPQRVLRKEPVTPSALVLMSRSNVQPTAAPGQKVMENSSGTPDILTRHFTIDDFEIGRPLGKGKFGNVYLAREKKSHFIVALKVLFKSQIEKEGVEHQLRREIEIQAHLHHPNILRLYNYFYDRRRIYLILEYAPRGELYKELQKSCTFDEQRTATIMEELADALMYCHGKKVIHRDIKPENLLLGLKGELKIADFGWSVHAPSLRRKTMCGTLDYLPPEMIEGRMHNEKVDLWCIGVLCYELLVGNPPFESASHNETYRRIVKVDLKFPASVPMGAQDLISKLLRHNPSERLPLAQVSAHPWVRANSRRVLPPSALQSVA
Cyclin-dependent kinase 5, sequence (Q00535 whole entry): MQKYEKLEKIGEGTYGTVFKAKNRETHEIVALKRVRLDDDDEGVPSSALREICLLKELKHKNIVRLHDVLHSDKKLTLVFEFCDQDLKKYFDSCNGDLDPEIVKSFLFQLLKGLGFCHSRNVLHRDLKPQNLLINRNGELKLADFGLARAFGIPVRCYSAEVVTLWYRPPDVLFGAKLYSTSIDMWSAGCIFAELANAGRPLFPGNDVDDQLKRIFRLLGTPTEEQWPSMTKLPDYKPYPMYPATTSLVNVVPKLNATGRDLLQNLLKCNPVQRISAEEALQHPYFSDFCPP
Homeodomain-interacting protein kinase 2, sequence (Q9H2X6 whole entry): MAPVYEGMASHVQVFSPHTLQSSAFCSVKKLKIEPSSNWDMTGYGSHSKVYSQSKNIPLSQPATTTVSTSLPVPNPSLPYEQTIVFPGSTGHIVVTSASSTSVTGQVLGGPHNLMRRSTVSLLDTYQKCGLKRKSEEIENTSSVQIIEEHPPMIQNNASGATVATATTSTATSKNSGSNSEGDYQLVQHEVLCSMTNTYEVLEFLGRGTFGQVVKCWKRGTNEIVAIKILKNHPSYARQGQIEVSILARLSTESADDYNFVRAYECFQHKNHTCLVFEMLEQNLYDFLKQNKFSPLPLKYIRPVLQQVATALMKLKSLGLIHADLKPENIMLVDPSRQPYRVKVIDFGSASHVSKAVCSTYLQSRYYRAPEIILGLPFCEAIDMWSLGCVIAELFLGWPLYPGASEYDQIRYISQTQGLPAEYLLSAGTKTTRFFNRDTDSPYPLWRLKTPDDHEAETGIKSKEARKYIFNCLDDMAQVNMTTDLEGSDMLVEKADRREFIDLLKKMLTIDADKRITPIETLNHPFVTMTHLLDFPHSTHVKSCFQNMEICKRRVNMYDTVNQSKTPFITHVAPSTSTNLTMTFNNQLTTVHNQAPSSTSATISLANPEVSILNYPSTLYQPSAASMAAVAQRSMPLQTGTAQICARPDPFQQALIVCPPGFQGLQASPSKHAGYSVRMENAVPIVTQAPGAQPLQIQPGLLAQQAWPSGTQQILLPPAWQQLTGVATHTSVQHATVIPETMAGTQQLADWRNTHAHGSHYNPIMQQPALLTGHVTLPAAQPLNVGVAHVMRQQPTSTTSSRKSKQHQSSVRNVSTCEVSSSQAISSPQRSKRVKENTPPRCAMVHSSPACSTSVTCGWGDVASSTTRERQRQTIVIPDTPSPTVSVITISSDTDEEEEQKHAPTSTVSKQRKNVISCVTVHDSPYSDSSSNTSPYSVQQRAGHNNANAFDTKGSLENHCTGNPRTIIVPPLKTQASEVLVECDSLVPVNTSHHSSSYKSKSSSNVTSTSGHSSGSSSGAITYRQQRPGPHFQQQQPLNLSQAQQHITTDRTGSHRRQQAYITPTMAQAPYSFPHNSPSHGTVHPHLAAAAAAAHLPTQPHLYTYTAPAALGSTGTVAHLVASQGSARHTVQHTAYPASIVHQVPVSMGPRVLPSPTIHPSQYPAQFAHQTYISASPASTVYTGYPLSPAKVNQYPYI
Serine/threonine-protein kinase N2, sequence (Q16513 whole entry): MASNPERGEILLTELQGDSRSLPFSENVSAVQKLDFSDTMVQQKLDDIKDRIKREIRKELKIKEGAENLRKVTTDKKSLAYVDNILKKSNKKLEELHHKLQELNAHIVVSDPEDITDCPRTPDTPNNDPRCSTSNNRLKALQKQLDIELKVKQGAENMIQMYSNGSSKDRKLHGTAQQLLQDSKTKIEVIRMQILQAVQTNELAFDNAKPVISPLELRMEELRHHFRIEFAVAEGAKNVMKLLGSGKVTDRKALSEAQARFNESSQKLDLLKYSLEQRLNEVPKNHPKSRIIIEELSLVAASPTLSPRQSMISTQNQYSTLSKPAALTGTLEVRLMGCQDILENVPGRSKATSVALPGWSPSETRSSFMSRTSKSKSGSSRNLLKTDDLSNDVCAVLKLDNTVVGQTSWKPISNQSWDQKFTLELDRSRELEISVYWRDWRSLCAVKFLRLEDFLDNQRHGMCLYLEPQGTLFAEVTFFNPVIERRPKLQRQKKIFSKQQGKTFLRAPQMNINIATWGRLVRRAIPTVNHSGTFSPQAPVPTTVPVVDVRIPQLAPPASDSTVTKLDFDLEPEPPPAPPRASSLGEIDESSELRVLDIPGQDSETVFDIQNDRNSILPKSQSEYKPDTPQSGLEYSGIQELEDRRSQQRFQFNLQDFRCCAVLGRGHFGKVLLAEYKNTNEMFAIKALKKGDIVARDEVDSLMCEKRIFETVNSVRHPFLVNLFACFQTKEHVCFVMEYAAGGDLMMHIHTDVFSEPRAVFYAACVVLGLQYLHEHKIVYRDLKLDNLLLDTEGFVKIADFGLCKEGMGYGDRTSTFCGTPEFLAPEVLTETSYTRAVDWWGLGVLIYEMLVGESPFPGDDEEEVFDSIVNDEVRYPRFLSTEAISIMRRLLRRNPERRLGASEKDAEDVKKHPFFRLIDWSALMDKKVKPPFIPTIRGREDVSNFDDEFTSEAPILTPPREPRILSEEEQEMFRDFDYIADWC

Question: What does the source list for `CNC[C@H](Cc1ccccc1)NC[C@@H](Cc1cccc2ccccc12)NCCc1ccc(C)cc1`?
Answer: EC50 [1]: 18.5 µM (active); IC50 [2]: 14.9 µM (active)

Question: Which EC50 [3] does the source give for `Nc1nnc2c(n1)CCCC2` here?
Answer: Its EC50 is 59.3 µM (active).

Question: For `O=C(Cc1ccccc1Cl)NC1(O)C(=O)c2ccccc2C1=O`, which EC50 (Protein RecA) is on record?
Answer: Its EC50 is 8.18 µM (active).

Question: With `O=C(N/N=C/c1c(O)ccc2ccccc12)c1[nH]ncc1Br` as the compound, how does the EC50 [4] read?
Answer: Its EC50 is 7.56 µM (active).

Question: What about the EC50 [5] of the same compound?
Answer: The EC50 was 11.7 µM (active).

Question: Which Ki (Aurora kinase B) does the source give for `Nc1c(-c2ccc(NC(=O)Nc3cccc(C(F)(F)F)c3)cc2)cnc2c(-c3ccc4c(c3)OCO4)cnn12` here?
Answer: The Ki was 1 µM (active).

Question: And the Ki [6]?
Answer: The Ki was > 3.16 µM (inactive).

Question: For `O=C(Nc1cc(-c2c[nH]c3ncccc23)cc(Cl)n1)c1ccccc1`, which Ki [7] is on record?
Answer: The Ki was > 5.01 µM (inactive).

Question: What about the Ki [8] of the same compound?
Answer: The Ki was > 1.58 µM (inactive).

Question: What about the Ki (Activin receptor type-1) of the same compound?
Answer: The Ki was > 3.98 µM (inactive).

Question: What about the Ki [9] of the same compound?
Answer: The Ki was > 3.98 µM (inactive).

Question: Which results are given for `CCN1C(=Cc2sc3ccccc3[n+]2C)C=Cc2cccc(C)c21`?
Answer: EC50 [10]: 0.142 µM (active); EC50 [11]: 6.43 µM (active); AC50 [12]: 1.05 µM (active); EC50 [13]: 1.86 µM (active)
